Laboratory results: EPA's ToxValDB 9.5

Assays:
Mus musculus = conditions: oral
Rattus norvegicus [1] = conditions: oral
Rattus norvegicus [2] = conditions: short-term, duration: 28 days, oral, gavage, F, Sprague-Dawley
[3] = developmental, duration: 17 days, F, Developmental: Decrease in number of successful birthsbirths
[4] = short-term, duration: 3 weeks, M, BALB/c, Immunotoxicological: ~36% decrease in spleen index during recovery / ~15% inhibition in Con Ainduced T-cell proliferation during treatment…
[5] = short-term, duration: 21 days, F, B6C3F1, Immunotoxicological: Decreased host resistance to influenza virus
[6] = subchronic, duration: 3 months, M/F, C57BL/6, Neurological: Impaired spatial learning and memory
[7] = subchronic, duration: 5 weeks, M, Body Weight: 17% decrease in body weight + Reproductive: Decreases in sperm concentration, serum testosterone levels / vacuolation in …
[8] = developmental, duration: 7 days, Sprague-Dawley, Body Weight: 30% reduction in body weight of dams + Developmental: 13% reduction in body weight of male pups
[9] = developmental, duration: 20 days, F, Sprague-Dawley, Developmental: 5-fold increased neonatal mortality on PNDs 1-3
[10] = developmental, duration: 21 days, F, Sprague-Dawley, Developmental: ~5-fold increased postnatal mortality and severe lung histopathology in pups
[11] = short-term, duration: 28 days, M, Sprague-Dawley, Body Weight: 12% decrease in terminal body weight
[12] = short-term, duration: 28 days, M, Sprague-Dawley, Neurological: Degeneration of gonadotropic cells of the pituitary gland at ?1.0 mg/kg/day / dense chromatin, condensed ribosomes, loss of …
[13] = short-term, duration: 28 days, M, Wistar, Neurological: Tonic convulsions in response to stimuli

## O=S(=O)(O)C(F)(F)C(F)(F)C(F)(F)C(F)(F)C(F)(F)C(F)(F)C(F)(F)C(F)(F)F [Perfluorooctanesulfonic acid]
Mus musculus; acute, duration: 1 days, M, C57BL/6, Death: LD50
  LOAEL: 579 mg/kg-day
Mus musculus; developmental, duration: 1 days, M, NMRI, Developmental: Altered spontaneous behavior (?60, 87.5, or 60% changes in total activity, rearing, and locomotion)
  LOAEL: 11.3 mg/kg-day
Mus musculus; developmental, duration: 17 days, CD1, Developmental: Significant increase in cholesterol levels in fetal livers
  LOAEL: 3 mg/kg-day
Mus musculus; [3]
  LOAEL: 3 mg/kg-day
  NOAEL: 0.1 mg/kg-day
Mus musculus; developmental, duration: 19 days, F, CD1, Developmental: In PND 63 offspring fed a high fat diet, increased serum glucose levels at ?0.3 mg/kg/day in females (~40%) and 3 mg/kg/day …
  LOAEL: 0.3 mg/kg-day
Mus musculus; developmental, duration: 19 days, F, CD1, ~24% increase in relative liver weight in dams at 3 mg/kg/day + Developmental: Increase in relative liver weight at 3 mg/kg/day in male and …
  NOAEL: 3 mg/kg-day
Mus musculus; reproduction developmental, duration: 6 days, F, CD1, Body Weight: 21% reduction in maternal body weight gain on GDs 14-17
  LOAEL: 8 mg/kg-day
Mus musculus; reproduction developmental, duration: 17 days, CD1, Hepatic: No alteration in maternal hepatic lipid levels
  NOAEL: 3 mg/kg-day
Mus musculus; short-term, duration: 3 weeks, M, BALB/c, Body Weight: ~15% reduction in body weight during the recovery period
  LOAEL: 10 mg/kg-day
Mus musculus; [4]
  LOAEL: 5 mg/kg-day
  NOAEL: 2.5 mg/kg-day
Mus musculus; short-term, duration: 7 days, F, BALB/c, Body Weight: 41% decreased body weight gain + Immunotoxicological: Inhibition of T lymphocyte proliferation in response to sRBC / decreased…
  LOAEL: 20 mg/kg-day
Mus musculus; short-term, duration: 7 days, F, BALB/c, Hepatic: 59% increase in relative liver weight
  NOAEL: 20 mg/kg-day
Mus musculus; short-term, duration: 7 days, M, Immunotoxicological: Impaired response to T-cell mitogens / suppressed response to sRBC
  LOAEL: 5 mg/kg-day
Mus musculus; short-term, duration: 10 days, M, C57BL/6, Hepatic: 41% increase in liver weight, hepatocellular hypertrophy, and decreased serum cholesterol levels
  NOAEL: 6 mg/kg-day
Mus musculus; [5]
  LOAEL: 0.025 mg/kg-day
  NOAEL: 0.005 mg/kg-day
Mus musculus; short-term, duration: 28 days, M, B6C3F1, Body Weight: 21% reduction in body weight
  LOAEL: 0.2 mg/kg-day
Mus musculus; short-term, duration: 28 days, M, B6C3F1, Immunotoxicological: No alterations in thymic lymphocyte phenotypes, response to sRBC, or IgM antibodies to LPS
  NOAEL: 0.2 mg/kg-day
Mus musculus; [6]
  LOAEL: 2.15 mg/kg-day
  NOAEL: 0.43 mg/kg-day
Mus musculus; [7]
  LOAEL: 10 mg/kg-day
  NOAEL: 0.5 mg/kg-day
Mus musculus; subchronic, duration: 6 weeks, M, Hepatic: Decreased plasma triglyceride, total cholesterol, non-HDL cholesterol, and HDL cholesterol levels / increased hepatic triglyceride…
  NOAEL: 3 mg/kg-day
Mus musculus; subchronic, duration: 30 days, M, C57BL/6
  NOAEL: 10 mg/kg-day
Mus musculus; subchronic, duration: 30 days, M, C57BL/6, Body Weight: 31% reduction in body weight (correlated with 68% reduction in feed consumption)
  LOAEL: 10 mg/kg-day
Mus musculus; subchronic, duration: 30 days, M, C57BL/6, Hepatic: Increased liver weight (35%) and serum AST(~12%) and GGT levels (~98%) at ?[…] / increases in ALT (~45%) and ALP (~36%) at ?5 mg/…
  LOAEL: 2.5 mg/kg-day
Rattus norvegicus [1]; developmental, duration: 1 days, M/F, Wistar, Developmental: Decreased spatial learning ability in prenatally or postnatally exposed offspring at ?0.8 mg/kg/day and in offspring exposure…
  LOAEL: 0.8 mg/kg-day
Rattus norvegicus [1]; developmental, duration: 5 days, M/F, Sprague-Dawley, Body Weight: Reduced body weight in dams / approximately 98% on GD 8 and 33% on GD 20 + Developmental: Decreased birth weight in females …
  LOAEL: 18.8 mg/kg-day
Rattus norvegicus [1]; [8]
  LOAEL: 20 mg/kg-day
  NOAEL: 5 mg/kg-day
Rattus norvegicus [1]; [9]
  LOAEL: 2 mg/kg-day
  NOAEL: 0.6 mg/kg-day
Rattus norvegicus [1]; [10]
  LOAEL: 2 mg/kg-day
  NOAEL: 0.1 mg/kg-day
Rattus norvegicus [1]; developmental, duration: 84 days, gavage, M/F, Sprague-Dawley, developmental
  NOAEL: 7.43 mg/L
Rattus norvegicus [1]; short-term, duration: 21 days, M, Sprague-Dawley
  NOAEL: 10 mg/kg-day
Rattus norvegicus [1]; short-term, duration: 21 days, M, Sprague-Dawley, Reproductive: Delayed maturation of testicular Leydig cells, decreased seminal vesicle weight, decreased epididymal sperm count, decreased …
  LOAEL: 5 mg/kg-day
Rattus norvegicus [1]; short-term, duration: 25 days, M, Sprague-Dawley, Endocrine: Decreases in serum corticosterone (~58%) and ACTH levels (~11%), decrease in corticotrophin releasing hormone levels in …
  LOAEL: 0.5 mg/kg-day
Rattus norvegicus [1]; short-term, duration: 28 days, M, Sprague-Dawley
  NOAEL: 6 mg/kg-day
Rattus norvegicus [1]; [11]
  LOAEL: 3.21 mg/kg-day
  NOAEL: 1.33 mg/kg-day
Rattus norvegicus [1]; short-term, duration: 28 days, M, Sprague-Dawley, Death: 100% by day 26
  LOAEL: 20 mg/kg-day
Rattus norvegicus [1]; short-term, duration: 28 days, M, Sprague-Dawley, Endocrine: Decreased serum prolactin (~78%) and estradiol concentrations (~18%)
  LOAEL: 3 mg/kg-day
Rattus norvegicus [1]; short-term, duration: 28 days, M, Sprague-Dawley, Hepatic: Hepatocellular hypertrophy and focal necrosis at ?5 mg/kg/day / fatty degeneration at 20 mg/kg/day + Neurological: Cachexia and …
  LOAEL: 5 mg/kg-day
Rattus norvegicus [1]; short-term, duration: 28 days, M, Sprague-Dawley, Hepatic: Increased relative liver weight at ?0.14 mg/kg/day
  NOAEL: 6.34 mg/kg-day
Rattus norvegicus [1]; [12]
  LOAEL: 1 mg/kg-day
  NOAEL: 0.5 mg/kg-day
Rattus norvegicus [1]; [13]
  LOAEL: 8.5 mg/kg-day
  NOAEL: 2 mg/kg-day
Rattus norvegicus [2]; Clinical chemistry_Alanine aminotransferase
  LOEL: 2.5 mg/kg-day
Rattus norvegicus [2]; Clinical chemistry_Albumin
  LOEL: 2.5 mg/kg-day
Rattus norvegicus [2]; Clinical chemistry_Albumin/globulin ratio
  LOEL: 2.5 mg/kg-day
Rattus norvegicus [2]; Clinical chemistry_Alkaline phosphatase
  LOEL: 2.5 mg/kg-day
Rattus norvegicus [2]; Clinical chemistry_Aspartate aminotransferase
  NOEL: 5 mg/kg-day
Rattus norvegicus [2]; Clinical chemistry_Cholesterol
  LOEL: 5 mg/kg-day
Rattus norvegicus [2]; Clinical chemistry_Direct bilirubin
  LOEL: 2.5 mg/kg-day
Rattus norvegicus [2]; Clinical chemistry_Free thyroxine
  LOEL: 0.312 mg/kg-day
Rattus norvegicus [2]; Clinical chemistry_Globulin
  NOEL: 5 mg/kg-day
Rattus norvegicus [2]; Clinical chemistry_Sorbitol dehydrogenase
  NOEL: 5 mg/kg-day
Rattus norvegicus [2]; Clinical chemistry_Testosterone
  NOEL: 5 mg/kg-day
Rattus norvegicus [2]; Clinical chemistry_Thyroid stimulating hormone
  NOEL: 5 mg/kg-day
Rattus norvegicus [2]; Clinical chemistry_Total bile acids
  LOEL: 2.5 mg/kg-day
Rattus norvegicus [2]; Clinical chemistry_Total bilirubin
  LOEL: 5 mg/kg-day
Rattus norvegicus [2]; Clinical chemistry_Total protein
  LOEL: 5 mg/kg-day
Rattus norvegicus [2]; Clinical chemistry_Total thyroxine
  LOEL: 0.312 mg/kg-day
Rattus norvegicus [2]; Clinical chemistry_Total triiodothyronine
  LOEL: 0.625 mg/kg-day
Rattus norvegicus [2]; Clinical chemistry_Triglycerides
  LOEL: 2.5 mg/kg-day
Rattus norvegicus [2]; Gene expression_Acox1
  LOEL: 0.312 mg/kg-day
Rattus norvegicus [2]; Gene expression_Cyp2b1
  LOEL: 0.312 mg/kg-day
Rattus norvegicus [2]; Gene expression_Cyp2b2
  LOEL: 0.312 mg/kg-day
Rattus norvegicus [2]; Gene expression_Cyp4a1
  LOEL: 0.312 mg/kg-day
Rattus norvegicus [2]; Hematology_Erythrocytes
  NOEL: 5 mg/kg-day
Rattus norvegicus [2]; Hematology_Hematocrit
  NOEL: 5 mg/kg-day
Rattus norvegicus [2]; Hematology_Hemoglobin
  NOEL: 5 mg/kg-day
Rattus norvegicus [2]; Hematology_Leukocytes
  NOEL: 5 mg/kg-day
Rattus norvegicus [2]; Hematology_Reticulocytes
  LOEL: 2.5 mg/kg-day
Rattus norvegicus [2]; Hematology_S. neutrophils
  NOEL: 5 mg/kg-day
Rattus norvegicus [2]; Nonneoplastic effects_Bone marrow - Hypocellularity
  LOEL: 2.5 mg/kg-day
Rattus norvegicus [2]; Nonneoplastic effects_Kidney - Papilla, necrosis
  NOEL: 5 mg/kg-day
Rattus norvegicus [2]; Nonneoplastic effects_Liver - Hepatocyte, cytoplasmic alteration
  LOEL: 1.25 mg/kg-day
